Here are results for three molecules from patent publication US7939661B2, “Pyridine, quinoline and pyrimidine derivatives” (Hoffman-La Roche Inc., priority 2006, dated 2011).

The structures appear in SMILES notation.

This test addresses T1, human subtype 5 somatostatin receptor (Homo sapiens, UniProt P35346).
T1 construct: host or cells: CHO cells, stably transfected; membranes prepared from them
The test can be described thus: radioligand replacement (binding) assay, membranes of CHO cells expressing human SSTR5, 125I-labeled 11-Tyr somatostatin-14 tracer. Conditions: human SSTR5, CHO cell membranes, 0.05 nM 125I-labeled 11-Tyr somatostatin-14, 1 h at rt; Ki from IC50 by Cheng-Prussoff equation. How it is done: A CHO cell line stably transfected with a plasmid encoding the human subtype 5 somatostatin receptor (GenBank accession number D16827) was obtained from Euroscreen. Cells were cultured and used for binding and functional assays.
Membranes of these cells were prepared by sonication in the presence of protease inhibitors and subsequent fractionating centrifugation. The protein concentration in the membrane preparation was determined using a commercial kit (BCA kit, Pierce, USA). Membranes were stored at −80° C. until use. After thawing membranes were diluted in assay buffer (50 mM Tris-HCl at pH 7.4, 5 mM MgCl2 and 0.20% BSA) and subjected to Dounce homogenization.
For binding studies, 0.1 mL membrane suspension, corresponding to approximately 6×10^−15 mol receptor, was incubated for 1 h at rt with 0.05 nM ^125I-labeled tracer (11-Tyr somatostatin-14, Perkin-Elmer) and either test compounds in varying concentrations or, for the determination of non-specific binding, 0.001 mM non-labeled somatostatin-14. The incubation was stopped by filtration through GF/B glassfiber filters and washing with ice-cold wash buffer (50 mM Tris-HCl at pH 7.4). The bound radioactivity was measured after application of a scintillation cocktail (Microscint 40) and expressed as disintegrations per minute (dpm).
The receptor concentration was determined in a prior saturation experiment where a fixed, arbitrary amount of membranes was incubated with a concentration range of radio-labeled tracer. This allows estimating the total number of specific binding sites per amount of protein (i.e., Bmax), typically between 1 and 5 pmol/mg.
The concentration of the test compound required to result in half maximal inhibition of binding of the radio-labeled tracer (IC50) was estimated from a concentration-versus-dpm graph. The binding affinity (Ki) was calculated from the IC50 by applying the Cheng-Prussoff equation for single binding sites.

T1 sequence (P35346 whole entry): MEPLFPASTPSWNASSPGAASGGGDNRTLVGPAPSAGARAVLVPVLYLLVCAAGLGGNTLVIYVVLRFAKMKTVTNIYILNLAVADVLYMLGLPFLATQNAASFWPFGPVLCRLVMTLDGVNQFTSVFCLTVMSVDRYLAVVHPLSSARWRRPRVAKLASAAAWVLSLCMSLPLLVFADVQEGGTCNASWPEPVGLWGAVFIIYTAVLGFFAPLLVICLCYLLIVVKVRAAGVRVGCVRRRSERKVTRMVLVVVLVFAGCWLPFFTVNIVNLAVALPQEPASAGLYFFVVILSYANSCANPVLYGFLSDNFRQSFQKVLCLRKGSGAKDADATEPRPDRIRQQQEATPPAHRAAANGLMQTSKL

As for `CCOc1cc(CN2CCC(Nc3cnc(N)c(C)c3)CC2)cc(OCC)c1-c1ccc(F)cc1` [Example 79, N^5-[1-(2,6-diethoxy-4′-fluoro-biphenyl-4-ylmethyl)-piperidin-4-yl]-3-methyl-pyridine-2,5-diamine], the Ki turned out to be 0.025 µM.
The result for `CCOc1cc(CN2CCC(Nc3cnc4ccccc4c3)CC2)ccc1OC(F)F` [Example 99, [1-(4-difluoromethoxy-3-ethoxy-benzyl)-piperidin-4-yl]-quinolin-3-yl-amine] reads 0.062 µM.
The result for `CCOc1cc(CN2CCC(Nc3ccnc(C)c3)CC2)ccc1OCC(C)C` [Example 122, [1-(3-ethoxy-4-isobutoxy-benzyl)-piperidin-4-yl]-(2-methyl-pyridin-4-yl)-amine] reads 0.492 µM.

What is called Ki is a measure of affinity in units of concentration, obtained from inhibition or displacement. The low end stands for higher affinity, the high end for lower affinity.
